Patent publication US20260125359A1, “HETEROARYL COMPOUNDS AS MULTI-TARGET PROTEIN KINASE INHIBITORS” (FUJIAN HAIXI PHARMACEUTICALS CO., LTD., priority 2023, published 2026)

tested on: M-NFS-60 cells; assay: M-NFS-60 cell in vitro assay (CCK, 48 h, M-CSF factor medium); type: cell-based; settings: M-NFS-60 cells; read-out: M-NFS-60cellassay IC50
Protocol: To determine the inhibitory activity of compounds on M-NFS-60 cells.
• M-NFS-60 cell line (ATCC, Cat. No.: CRL-1838) • RPMI-1640 medium (Gibco, domestic subpackage, Cat. No.: C11875500BT) • Recombinant Mouse CSF1/M-CSF (Sino Biological Inc., Cat. No.: 51112-MNAH) • PAN/Serum (BioTECH, Cat. No.: P30-2602) • Trypsin/0.05% Trypsin-EDTA (Gibco, Cat. No.: 25300-062) • 0.4% Trypan Blue (Sigma, Cat. No.: T8154-20 ml) • Penicillin-Streptomycin (Hyclone, Cat. No.: SV30010) • DMSO (Solarbio, Cat. No.: D8371) • PBS (Solarbio, Cat. No.: P1020) • CCK (AbMole BioScience, Cat. No.: M4839-500Tests)
• 1) M-CSF factor stock solution: take 10 μg of powdered m-CSF factor, add 0.4 ml of saline, formulate 25 ug/ml and store at −80° C. • 2) M-CSF factor (25 ng/ml) medium: • 1640 (Gibco)+10% PAN+100×Penicillin-Streptomycin+100×M-CSF stock solution • 3) Complete medium: • 1640 (Gibco)+10% PAN+100×Penicillin-Streptomycin • 4) Compound preparation: 2-3 mg of the compound was added to DMSO to formulate a 30 mM stock solution, −80° C. refrigerator storage
• 1) Cell resuscitation: the frozen cells in the cryovial were thawed rapidly by shaking in a 37° C. water bath, then 4 mL of medium was added. After mixing evenly, they were centrifuged at 125×g for 5 min, and the supernatant was discarded. The cells were resuspended and transferred to the culture flasks, and were cultured in a 5% CO2 fully saturated humidity incubator. • 2) Cell passaging: M-NFS-60 cells are semi-suspension cells, which were collected directly in a 15 mL centrifuge tube, centrifuged at 125×g for 5 min. and the supernatant was discarded. The cells were resuspended and passaged into new culture flasks at a ratio of 1:5 to 1:10. • 3) After the newly resuscitated cells were passaged 1-2 times for cell stabilization, compound inhibition assays were started when the cells were in the logarithmic growth phase. • (a) Cell collection and counting: the same as the cell passaging step, centrifuge in two tubes, one tube with M-CSF factor medium to resuspend the cells, the other tube with complete medium to resuspend the cells. Take 10 μL of cell suspension in each tube, and count the cells by Tepan blue staining. • (b) Dilute the cell solution according to the concentration of inoculated cells respectively, the concentration of M-NFS-60 cells inoculated with factor was 5.56×10^4 cells/mL, and the concentration of inoculated without factor was 5×10^4 cells/mL. • (c) Seed plate: 384 well plate inoculated with M-NFS-60 cells, 36 uL/well, triplicate wells, the number of inoculated cells was equivalent to 2000 cells/well, set with blank control, factor free negative control, normal control, DMSO control and experimental wells. The cells were placed in a 5% CO2 fully saturated humidity incubator for 4 h. • (d) Sampling compounds: 96 well plates were used for compound preparation. The compound solution prepared in advance was diluted to corresponding gradient concentration with DMSO. An appropriate amount of the diluted solution in the previous step was added to an equal volume of factor containing medium. The 96 well plates were centrifuged at 1000 rpm for 5 min, which played the role of defoaming and spinning down droplets and condensation. Remove the 384 well plate from the incubator, add the diluted compound solution into each well sequentially, 4 μL/well; DMSO wells and normal wells were added with corresponding factor containing medium, 4 μL/well. Then it was put into CO2 incubator for 48 h. • (e) After incubation for 48 h, CCK was added to each well, 4 uL, and the plates were placed in the incubator for another 2 h, and then the OD (optical density) value at 450 nm was measured by microplate reader.
The IC50 values for each test compound were fitted using professional graphing and analysis software.

SMILES | IC50
Cc1cccc(C(=O)Nc2c(F)ccc3c2CC[C@@H]3Nc2cncc(-c3cnn(C)c3)c2)c1 (stereo in doubt) [Compound 43, N-(5-fluoro-1-((5-(1-methyl-1H-pyrazol-4-yl)pyridin-3-yl)amino)-2,3-dihydro-1H-inden-4-yl)-3-methylbenzamide] | 200 to 500 nM
COc1cccc(C(=O)Nc2cccc3c2CCC3Oc2cc(-c3cnn(C)c3)cnc2N)c1 (stereo not drawn) [Compound 1, N-(1-((2-amino-5-(1-methyl-1H-pyrazol-4-yl)pyridin-3-yl)oxy)-2,3-dihydro-1H-inden-4-yl)-3-methoxybenzamide] | 50 to 200 nM
COc1cccc(C(=O)Nc2cccc3c2CCC3Oc2cc(Br)cnc2N)c1 (stereo not drawn) [Compound 1f, N-(1-((2-amino-5-bromopyridin-3-yl)oxy)-2,3-dihydro-1H-inden-4-yl)-3-methoxybenzamide] | 50 to 200 nM
COc1cccc(C(=O)Nc2cccc3c2CCCC3Oc2cc(-c3cnn(C)c3)cnc2N)c1 (stereo not drawn) [Compound 2a] | > 500 nM
COc1cccc(C(=O)Nc2cccc3c2OCCC3Oc2cc(Br)cnc2N)c1 (stereo not drawn) [Compound 2b] | > 500 nM
COc1cccc(C(=O)Nc2cccc3c2OCCC3Oc2cc(-c3cnn(C)c3)cnc2N)c1 (stereo not drawn) [Compound 2c] | 200 to 500 nM
COc1cccc(C(=O)Nc2cccc3c2CC[C@H]3Oc2cc(-c3cnn(C)c3)cnc2N)c1 [Compound 3a] | > 500 nM
COc1cccc(C(=O)Nc2cccc3c2CC[C@@H]3Oc2cc(-c3cnn(C)c3)cnc2N)c1 [Compound 3b] | < 50 nM
Cn1cc(-c2cnc(N)c(O[C@H]3CCc4c(NC(=O)c5ccc6c(c5)OC(F)(F)O6)cccc43)c2)cn1 [Compound 3c] | 50 to 200 nM
Cn1cc(-c2cnc(N)c(O[C@H]3CCc4c(NC(=O)c5csc6ccccc56)cccc43)c2)cn1 [Compound 3d] | < 50 nM
Cn1cc(-c2cnc(N)c(O[C@H]3CCc4c(NC(=O)c5cccc(C(F)(F)F)c5)cccc43)c2)cn1 [Compound 3e] | < 50 nM
Cc1ccc(C(=O)Nc2cccc3c2CC[C@@H]3Oc2cc(-c3cnn(C)c3)cnc2N)cc1C [Compound 3f] | < 50 nM
Cn1cc(-c2cnc(N)c(O[C@H]3CCc4c(NC(=O)c5cccc(C6CC6)c5)cccc43)c2)cn1 [Compound 3g] | < 50 nM
Cn1cc(-c2cnc(N)c(O[C@H]3CCc4c(NC(=O)c5cccc(CN6CCCCC6)c5)cccc43)c2)cn1 [Compound 3h] | > 500 nM
Cn1cc(-c2cnc(N)c(O[C@H]3CCc4c(NC(=O)c5cccc(CN6CCCC6)c5)cccc43)c2)cn1 [Compound 3i] | > 500 nM
CN(C)Cc1cccc(C(=O)Nc2cccc3c2CC[C@@H]3Oc2cc(-c3cnn(C)c3)cnc2N)c1 [Compound 3j] | > 500 nM
Cn1cc(-c2cnc(N)c(O[C@H]3CCc4c(C(=O)Nc5cccc(CN6CCCCC6)c5)cccc43)c2)cn1 [Compound 5b] | 50 to 200 nM
Cn1cc(-c2cnc(N)c(O[C@H]3CCc4c(C(=O)Nc5cccc(CN6CCCC6)c5)cccc43)c2)cn1 [Compound 5c] | 50 to 200 nM
CN(C)Cc1ccc(NC(=O)c2cccc3c2CC[C@@H]3Oc2cc(-c3cnn(C)c3)cnc2N)cc1 [Compound 5d] | < 50 nM
CN(C)Cc1cccc(NC(=O)c2cccc3c2CC[C@@H]3Oc2cc(-c3cnn(C)c3)cnc2N)c1 [Compound 5e] | < 50 nM
Cc1cc(C(=O)Nc2cccc3c2CC[C@@H]3Nc2cc(-c3cnn(C)c3)cnc2N)ccc1F [Compound 6, (S)—N-(1-((2-amino-5-(1-methyl-1H-pyrazol-4-yl)pyridin-3-yl)amino)-2,3-dihydro-1H-inden-4-yl)-4-fluoro-3-methylbenzamide] | 50 to 200 nM

SMILES | IC50
Nc1ncc(Cl)cc1O[C@H]1CCc2c(C(=O)Nc3cccc(C4CC4)c3)cccc21 [Compound 7, (S)-1-((2-amino-5-chloropyridin-3-yl)oxy)-N-(3-cyclopropylphenyl)-2,3-dihydro-1H-indene-4-carboxamide] | < 50 nM
Cc1cccc(C(=O)Nc2cccc3c2CCC3Nc2cncc(-c3cnn(C)c3)c2)c1 (stereo not drawn) [Compound 8, 3-methyl-N-(1-((5-(1-methyl-1H-pyrazol-4-yl)pyridin-3-yl)amino)-2,3-dihydro-1H-inden-4-yl)benzamide] | < 50 nM
Cc1cccc(C(=O)Nc2cccc3c2CCC3Nc2cncc(Br)c2)c1 (stereo not drawn) [Compound 8d, N-(1-((5-bromopyridin-3-yl)amino)-2,3-dihydro-1H-inden-4-yl)-3-methylbenzamide] | 50 to 200 nM
Cn1cc(-c2cncc(NC3CCc4c(NC(=O)c5ccc6c(c5)OC(F)(F)O6)cccc43)c2)cn1 (stereo not drawn) [Compound 9, 2,2-difluoro-N-(1-((5-(1-methyl-1H-pyrazol-4-yl)pyridin-3-yl)amino)-2,3-dihydro-1H-inden-4-yl)benzo[d][1,3]dioxole-5-carboxamide] | 50 to 200 nM
O=C(Nc1cccc(C2CC2)c1)c1cccc2c1CC[C@@H]2Nc1cncc(Br)c1 [Compound 10, (S)-1-((5-bromopyridin-3-yl)amino)-N-(3-cyclopropylphenyl)-2,3-dihydro-1H-indene-4-carboxamide] | 50 to 200 nM
O=C(Nc1cccc2c1CC[C@@H]2Nc1cncc(Br)c1)c1cccc(C2CC2)c1 [Compound 11, (S)—N-(1-((5-bromopyridin-3-yl)amino)-2,3-dihydro-1H-inden-4-yl)-3-cyclopropylbenzamide] | 50 to 200 nM
Cc1cccc(C(=O)Nc2cccc3c2CC[C@@H]3Nc2cncc(-c3cnn(C)c3)c2)c1 [Compound 12, (S)-3-methyl-N-(1-((5-(1-methyl-1H-pyrazol-4-yl)pyridin-3-yl)amino)-2,3-dihydro-1H-inden-4-yl)benzamide] | < 50 nM
Cc1ccc(F)c(NC(=O)c2cccc3c2CC[C@@H]3Nc2cncc(-c3cnn(C)c3)c2)c1 [Compound 14ac] | < 50 nM
Cn1cc(-c2cncc(N[C@H]3CCc4c(C(=O)Nc5ccc(Cl)c(C(F)(F)F)c5)cccc43)c2)cn1 [Compound 14ad] | < 50 nM
Cn1cc(-c2cncc(N[C@H]3CCc4c(C(=O)Nc5ccccc5F)cccc43)c2)cn1 [Compound 14ae] | < 50 nM
COc1cc(NC(=O)c2cccc3c2CC[C@@H]3Nc2cncc(-c3cnn(C)c3)c2)ccc1F [Compound 14af] | < 50 nM
Cn1cc(-c2cncc(N[C@H]3CCc4c(C(=O)Nc5nn(C)c6ccccc56)cccc43)c2)cn1 [Compound 14ag] | < 50 nM
CN1CCN(c2cccc(NC(=O)c3cccc4c3CC[C@@H]4Nc3cncc(-c4cnn(C)c4)c3)c2)CC1 [Compound 14ai] | 50 to 200 nM
CN1CCN(Cc2ccc(NC(=O)c3cccc4c3CC[C@@H]4Nc3cncc(-c4cnn(C)c4)c3)cc2)CC1 [Compound 14aj] | 50 to 200 nM
Cn1cc(-c2cncc(N[C@H]3CCc4c(C(=O)Nc5cncc(C(F)(F)F)c5)cccc43)c2)cn1 [Compound 14ak] | < 50 nM
Cn1cc(-c2cncc(N[C@H]3CCc4c(C(=O)Nc5ccc(C(F)(F)F)cc5)cccc43)c2)cn1 [Compound 14al] | < 50 nM
COc1ccc(NC(=O)c2cccc3c2CC[C@@H]3Nc2cncc(-c3cnn(C)c3)c2)cc1 [Compound 14am] | < 50 nM
Cn1cc(-c2cncc(N[C@H]3CCc4c(C(=O)Nc5ccc(Cl)cc5)cccc43)c2)cn1 [Compound 14an] | < 50 nM
Cn1cc(-c2cncc(N[C@H]3CCc4c(C(=O)Nc5ccc(Cl)c(F)c5)cccc43)c2)cn1 [Compound 14ao] | < 50 nM
CN1CCN(c2ccc(NC(=O)c3cccc4c3CC[C@@H]4Nc3cncc(-c4cnn(C)c4)c3)cc2)CC1 [Compound 14aq] | 200 to 500 nM
CN1CCN(Cc2cccc(NC(=O)c3cccc4c3CC[C@@H]4Nc3cncc(-c4cnn(C)c4)c3)c2)CC1 [Compound 14ar] | 200 to 500 nM
